Results published in PubChem BioAssay AID2060615 (Molecular Pharmacology Branch, DTP, NCI, 2025).

System: 496974-208-R-J2-PDC complex spheroids, growth % test/control
Test: Anticancer human tumor 496974-208-R-J2-PDC patient-derived pancreatic carcinoma cell line growth inhibition [CLK]
Settings: for IC50: curve of first compound; for viability, T/C: stronger effect = lower value
Method in brief: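 Patient-derived tumor cells grown as complex spheroids with HUVEC endothelial cells and mesenchymal stem cells, treated with drug combinations. Concentrations descend in half-log steps from near clinical Cmax, or from 10 microM if Cmax unknown.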

[1] = second compound 0.0316 µM, first compound 0.0316 µM
[2] = second compound 0.0316 µM, first compound 0.1 µM
[3] = second compound 0.1 µM, first compound 0.0316 µM
[4] = second compound 0.1 µM, first compound 0.1 µM
[5] = second compound 0.316 µM, first compound 0.0316 µM
[6] = second compound 0.316 µM, first compound 0.1 µM
[7] = second compound 1 µM, first compound 0.0316 µM
[8] = second compound 1 µM, first compound 0.1 µM
[9] = second compound 3.16 µM, first compound 0.0316 µM
[10] = second compound 3.16 µM, first compound 0.1 µM
[11] = second compound 10 µM, first compound 0.0316 µM
[12] = second compound 10 µM, first compound 0.1 µM
[13] = second compound 0.0316 µM, first compound 0.316 µM
[14] = second compound 0.0316 µM, first compound 1 µM
[15] = second compound 0.0316 µM, first compound 3.16 µM
[16] = second compound 0.0316 µM, first compound 10 µM
[17] = second compound 0.1 µM, first compound 0.316 µM
[18] = second compound 0.1 µM, first compound 1 µM
[19] = second compound 0.1 µM, first compound 3.16 µM
[20] = second compound 0.1 µM, first compound 10 µM
[21] = second compound 0.316 µM, first compound 0.316 µM
[22] = second compound 0.316 µM, first compound 1 µM
[23] = second compound 0.316 µM, first compound 3.16 µM
[24] = second compound 0.316 µM, first compound 10 µM
[25] = second compound 1 µM, first compound 0.316 µM
[26] = second compound 1 µM, first compound 1 µM
[27] = second compound 1 µM, first compound 3.16 µM
[28] = second compound 1 µM, first compound 10 µM
[29] = second compound 3.16 µM, first compound 0.316 µM
[30] = second compound 3.16 µM, first compound 1 µM
[31] = second compound 3.16 µM, first compound 3.16 µM
[32] = second compound 3.16 µM, first compound 10 µM
[33] = second compound 10 µM, first compound 0.316 µM
[34] = second compound 10 µM, first compound 1 µM
[35] = second compound 10 µM, first compound 3.16 µM
[36] = second compound 10 µM, first compound 10 µM
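Further: spheroids exposed to the drugs for 7 days before readout.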
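Wherever viability, T/C is given: 100% = DMSO vehicle control wells.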

Q: How did the IC50 (second compound 0.0316 µM) turn out when Cn1ncnc1[C@H]1c2n[nH]c(=O)c3cc(F)cc(c23)N[C@@H]1c1ccc(F)cc1 + CNC(=O)c1ccc(Nc2nc(OC3CCCC3)c3c(-c4ccc5nc(C)oc5c4)c[nH]c3n2)c(OC)c1 was run?
A: Its IC50 is over 100 nM.

Q: And the IC50 (second compound 0.1 µM)?
A: Its IC50 is over 100 nM.

Q: What about the IC50 (second compound 0.316 µM) of the same molecule?
A: Its IC50 is over 100 nM.

Q: And the IC50 (second compound 1 µM)?
A: The IC50 was over 100 nM.

Q: And the IC50 (second compound 3.16 µM)?
A: The IC50 was over 100 nM.

Q: What about the IC50 (second compound 10 µM) of the same molecule?
A: Its IC50 is over 100 nM.

Q: And the viability, T/C (second compound 0.0316 µM, first compound 0.000316 µM)?
A: Its viability, T/C is 103%.

Q: And the viability, T/C (second compound 0.0316 µM, first compound 0.001 µM)?
A: The viability, T/C was 110%.

Q: And the viability, T/C (second compound 0.0316 µM, first compound 0.00316 µM)?
A: Its viability, T/C is 95%.

Q: And the viability, T/C (second compound 0.0316 µM, first compound 0.01 µM)?
A: Its viability, T/C is 100%.

Q: And the viability, T/C [1]?
A: The viability, T/C was 98.2%.

Q: What about the viability, T/C [2] of the same molecule?
A: Its viability, T/C is 85.7%.

Q: And the viability, T/C (second compound 0.1 µM, first compound 0.000316 µM)?
A: Its viability, T/C is 77%.

Q: What about the viability, T/C (second compound 0.1 µM, first compound 0.001 µM) of the same molecule?
A: The viability, T/C was 83.3%.

Q: And the viability, T/C (second compound 0.1 µM, first compound 0.00316 µM)?
A: The viability, T/C was 83.1%.

Q: What about the viability, T/C (second compound 0.1 µM, first compound 0.01 µM) of the same molecule?
A: The viability, T/C was 94.6%.

Q: And the viability, T/C [3]?
A: Its viability, T/C is 74.6%.

Q: And the viability, T/C [4]?
A: Its viability, T/C is 78%.

Q: What about the viability, T/C (second compound 0.316 µM, first compound 0.000316 µM) of the same molecule?
A: The viability, T/C was 82%.

Q: What about the viability, T/C (second compound 0.316 µM, first compound 0.001 µM) of the same molecule?
A: The viability, T/C was 84%.

Q: What about the viability, T/C (second compound 0.316 µM, first compound 0.00316 µM) of the same molecule?
A: Its viability, T/C is 99.9%.

Q: What about the viability, T/C (second compound 0.316 µM, first compound 0.01 µM) of the same molecule?
A: The viability, T/C was 80.4%.

Q: And the viability, T/C [5]?
A: The viability, T/C was 78.3%.

Q: What about the viability, T/C [6] of the same molecule?
A: Its viability, T/C is 67.9%.

Q: And the viability, T/C (second compound 1 µM, first compound 0.000316 µM)?
A: Its viability, T/C is 72.4%.

Q: What about the viability, T/C (second compound 1 µM, first compound 0.001 µM) of the same molecule?
A: Its viability, T/C is 73.5%.

Q: And the viability, T/C (second compound 1 µM, first compound 0.00316 µM)?
A: Its viability, T/C is 68.9%.

Q: And the viability, T/C (second compound 1 µM, first compound 0.01 µM)?
A: Its viability, T/C is 76.7%.

Q: And the viability, T/C [7]?
A: Its viability, T/C is 74.9%.

Q: What about the viability, T/C [8] of the same molecule?
A: The viability, T/C was 65%.

Q: And the viability, T/C (second compound 3.16 µM, first compound 0.000316 µM)?
A: Its viability, T/C is 69.3%.

Q: What about the viability, T/C (second compound 3.16 µM, first compound 0.001 µM) of the same molecule?
A: The viability, T/C was 62.8%.

Q: And the viability, T/C (second compound 3.16 µM, first compound 0.00316 µM)?
A: Its viability, T/C is 57.4%.

Q: And the viability, T/C (second compound 3.16 µM, first compound 0.01 µM)?
A: Its viability, T/C is 61.5%.

Q: And the viability, T/C [9]?
A: Its viability, T/C is 67.2%.

Q: And the viability, T/C [10]?
A: The viability, T/C was 65%.

Q: And the viability, T/C (second compound 10 µM, first compound 0.000316 µM)?
A: Its viability, T/C is 55.5%.

Q: What about the viability, T/C (second compound 10 µM, first compound 0.001 µM) of the same molecule?
A: Its viability, T/C is 55%.

Q: And the viability, T/C (second compound 10 µM, first compound 0.00316 µM)?
A: Its viability, T/C is 55.7%.

Q: And the viability, T/C (second compound 10 µM, first compound 0.01 µM)?
A: The viability, T/C was 54.1%.

Q: What about the viability, T/C [11] of the same molecule?
A: The viability, T/C was 54.2%.

Q: And the viability, T/C [12]?
A: Its viability, T/C is 52.7%.

Q: What does the source list for Nc1ccn(C2OC(CO)C(O)C2(F)F)c(=O)n1 (stereo unspecified) + CNC(=O)c1ccc(Nc2nc(OC3CCCC3)c3c(-c4ccc5nc(C)oc5c4)c[nH]c3n2)c(OC)c1?
A: IC50 (second compound 0.0316 µM): > 10000 nM; IC50 (second compound 0.1 µM): > 10000 nM; IC50 (second compound 0.316 µM): > 10000 nM; IC50 (second compound 1 µM): 2760 nM; IC50 (second compound 3.16 µM): 279 nM; IC50 (second compound 10 µM): 60.6 nM; viability, T/C [1]: 94.5%; viability, T/C [2]: 80%; viability, T/C [13]: 67%; viability, T/C [14]: 65.4%; viability, T/C [15]: 68.5%; viability, T/C [16]: 58.5%; viability, T/C [3]: 75.3%; viability, T/C [4]: 80.7%; viability, T/C [17]: 64.6%; viability, T/C [18]: 62.9%; viability, T/C [19]: 60.7%; viability, T/C [20]: 54%; viability, T/C [5]: 63.3%; viability, T/C [6]: 74.2%; viability, T/C [21]: 69.9%; viability, T/C [22]: 54.8%; viability, T/C [23]: 59.6%; viability, T/C [24]: 65.2%; viability, T/C [7]: 66.4%; viability, T/C [8]: 62.5%; viability, T/C [25]: 66.6%; viability, T/C [26]: 53.5%; viability, T/C [27]: 44.4%; viability, T/C [28]: 54.7%; viability, T/C [9]: 63.1%; viability, T/C [10]: 59.8%; viability, T/C [29]: 49.2%; viability, T/C [30]: 41%; viability, T/C [31]: 42.1%; viability, T/C [32]: 43.7%; viability, T/C [11]: 52.8%; viability, T/C [12]: 49%; viability, T/C [33]: 44.4%; viability, T/C [34]: 39.6%; viability, T/C [35]: 40.6%; viability, T/C [36]: 43.1%

Q: What does the source list for O=c1[nH]cc(F)c(=O)[nH]1 + CNC(=O)c1ccc(Nc2nc(OC3CCCC3)c3c(-c4ccc5nc(C)oc5c4)c[nH]c3n2)c(OC)c1?
A: IC50 (second compound 0.0316 µM): > 10000 nM; IC50 (second compound 0.1 µM): > 10000 nM; IC50 (second compound 0.316 µM): > 10000 nM; IC50 (second compound 1 µM): 6380 nM; IC50 (second compound 3.16 µM): > 10000 nM; IC50 (second compound 10 µM): 1210 nM; viability, T/C [1]: 102%; viability, T/C [2]: 88.6%; viability, T/C [13]: 92.7%; viability, T/C [14]: 85.3%; viability, T/C [15]: 72.2%; viability, T/C [16]: 61.8%; viability, T/C [3]: 74.8%; viability, T/C [4]: 83.1%; viability, T/C [17]: 76.2%; viability, T/C [18]: 81.8%; viability, T/C [19]: 70.7%; viability, T/C [20]: 58.7%; viability, T/C [5]: 78.5%; viability, T/C [6]: 76.4%; viability, T/C [21]: 68.2%; viability, T/C [22]: 70.4%; viability, T/C [23]: 67.1%; viability, T/C [24]: 54.6%; viability, T/C [7]: 73.7%; viability, T/C [8]: 67.3%; viability, T/C [25]: 71.5%; viability, T/C [26]: 69%; viability, T/C [27]: 56.9%; viability, T/C [28]: 45.6%; viability, T/C [9]: 63.5%; viability, T/C [10]: 58.6%; viability, T/C [29]: 64%; viability, T/C [30]: 54%; viability, T/C [31]: 55.2%; viability, T/C [32]: 48.5%; viability, T/C [11]: 51.8%; viability, T/C [12]: 58.5%; viability, T/C [33]: 54.2%; viability, T/C [34]: 51.8%; viability, T/C [35]: 41.3%; viability, T/C [36]: 39%
